In article PMC10952895, “Assessment of the potential of novel and classical opioids to induce respiratory depression in mice” (British Journal of Pharmacology, 2023) one finds pEC50 data, which are given here for three molecules.

The test relates to T1, μ-receptor (μ-receptor-RLuc8).
T1 construct: gene Oprm1; construct from Gillis, Gondin et al. 2020
The experiment in a line: BRET, Nb33-Venus recruitment to μ-receptor-RLuc8 in HEK293 cells. Format: cell-based. The settings on record: agonist; 10 min after addition, normalised to DAMGO. Background: Bioluminescence resonance energy transfer reports proximity on the nanometre scale.

The term pEC50 denotes the EC50 on a negative log10 scale, so that one unit is a factor of ten. Low values mean a large EC50, high ones a small EC50.

As for `COc1ccsc1CNCC[C@@]1(c2ccccn2)CCOC2(CCCC2)C1` [oliceridine], the negative logarithm of the EC50 (pEC50) came out at 6.8 ± 0.1.

As to `COc1ccc2c3c1O[C@H]1C(=O)CC[C@@]4(O)[C@@H](C2)N(C)CC[C@]314` [oxycodone], the negative-log EC50 (pEC50) is 5.8 ± 0.05.

`CN1c2ccccc2C(NCCCCCCC(=O)O)c2ccc(Cl)cc2S1(=O)=O` (stereo not drawn) [tianeptine]: the pEC50 was found to be 5.8 ± 0.07.
